As usually defined, the Ki is the equilibrium dissociation constant of an inhibitor or competing ligand from its target.

Several values for one entry are separate records, joined by “and”; a condition that tells them apart may be missing. Identical values can stand only once. Like-named read-outs stand apart in the source and are kept apart here.

The assay addresses T1, PI3k δ (Homo sapiens, UniProt O00329).
T1 construct: Full length p110 subunits of PI3k α, β and δ; polyHis (N); made in house; host or cells: Sf9 insect cells (baculovirus)
Put plainly: biochemical. The class given is biochemical. On the procedure:
Full length p110 subunits of PI3k α, β and δ, N-terminally labeled with polyHis tag, were coexpressed with p85 with Baculo virus expression vectors in sf9 insect cells. P110/p85 heterodimers were purified by sequential Ni-NTA, Q-HP, Superdex-100 chromatography. Purified α, β and δ isozymes were stored at −20° C. in 20 mM Tris, pH 8, 0.2M NaCl, 50% glycerol, 5 mM DTT, 2 mM Na cholate. […] The γ isozyme was purified by sequential Ni-NTA, Superdex-200, Q-HP chromatography. The γ isozyme was stored frozen at −80° C. in NaH2PO4, pH 8, 0.2M NaCl, 1% ethylene glycol, 2 mM β-mercaptoethanol.
Phospatidyl inositol phosphoacceptor, Ptdlns(4,5)P2 P4508, was from Echelon Biosciences. […] Test compounds were dissolved in dimethyl sulfoxide and diluted with three-fold serial dilutions. The compound in DMSO (1 μL) was added per test well, and the inhibition relative to reactions containing no compound, with and without enzyme was determined. After assay incubation at rt, the reaction was stopped and residual ATP determined by addition of an equal volume of a commercial ATP bioluminescence kit (Perkin Elmer EasyLite) according to the manufacturer's instructions, and detected using a AnalystGT luminometer.

T1 sequence (O00329 whole entry): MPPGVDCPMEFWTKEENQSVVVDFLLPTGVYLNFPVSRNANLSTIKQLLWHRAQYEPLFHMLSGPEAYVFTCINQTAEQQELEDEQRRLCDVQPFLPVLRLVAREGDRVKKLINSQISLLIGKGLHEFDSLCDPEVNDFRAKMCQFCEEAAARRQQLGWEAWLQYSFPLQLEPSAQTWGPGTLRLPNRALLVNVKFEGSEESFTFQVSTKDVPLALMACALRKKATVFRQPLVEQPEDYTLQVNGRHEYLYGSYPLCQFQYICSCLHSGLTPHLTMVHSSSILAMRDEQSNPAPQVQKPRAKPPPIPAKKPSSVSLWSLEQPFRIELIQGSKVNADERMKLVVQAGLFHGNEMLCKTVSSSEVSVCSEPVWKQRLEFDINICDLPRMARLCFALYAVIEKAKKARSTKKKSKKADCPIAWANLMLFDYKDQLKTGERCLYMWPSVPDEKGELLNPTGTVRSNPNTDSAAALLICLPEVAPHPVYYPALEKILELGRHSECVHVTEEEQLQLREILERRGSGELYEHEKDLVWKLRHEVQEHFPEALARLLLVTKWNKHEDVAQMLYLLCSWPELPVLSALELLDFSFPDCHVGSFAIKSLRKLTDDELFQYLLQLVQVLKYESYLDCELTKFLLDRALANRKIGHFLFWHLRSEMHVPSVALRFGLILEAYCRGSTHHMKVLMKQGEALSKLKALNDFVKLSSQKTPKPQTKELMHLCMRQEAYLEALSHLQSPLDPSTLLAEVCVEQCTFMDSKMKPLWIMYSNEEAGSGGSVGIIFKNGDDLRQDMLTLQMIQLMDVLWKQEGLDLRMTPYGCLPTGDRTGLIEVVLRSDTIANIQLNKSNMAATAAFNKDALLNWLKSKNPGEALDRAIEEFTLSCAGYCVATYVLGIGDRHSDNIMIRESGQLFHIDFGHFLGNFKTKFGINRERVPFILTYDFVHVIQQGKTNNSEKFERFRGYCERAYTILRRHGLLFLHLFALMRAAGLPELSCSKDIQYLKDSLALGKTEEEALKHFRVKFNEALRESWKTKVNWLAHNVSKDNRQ
T1 sequence (P27986 whole entry partner): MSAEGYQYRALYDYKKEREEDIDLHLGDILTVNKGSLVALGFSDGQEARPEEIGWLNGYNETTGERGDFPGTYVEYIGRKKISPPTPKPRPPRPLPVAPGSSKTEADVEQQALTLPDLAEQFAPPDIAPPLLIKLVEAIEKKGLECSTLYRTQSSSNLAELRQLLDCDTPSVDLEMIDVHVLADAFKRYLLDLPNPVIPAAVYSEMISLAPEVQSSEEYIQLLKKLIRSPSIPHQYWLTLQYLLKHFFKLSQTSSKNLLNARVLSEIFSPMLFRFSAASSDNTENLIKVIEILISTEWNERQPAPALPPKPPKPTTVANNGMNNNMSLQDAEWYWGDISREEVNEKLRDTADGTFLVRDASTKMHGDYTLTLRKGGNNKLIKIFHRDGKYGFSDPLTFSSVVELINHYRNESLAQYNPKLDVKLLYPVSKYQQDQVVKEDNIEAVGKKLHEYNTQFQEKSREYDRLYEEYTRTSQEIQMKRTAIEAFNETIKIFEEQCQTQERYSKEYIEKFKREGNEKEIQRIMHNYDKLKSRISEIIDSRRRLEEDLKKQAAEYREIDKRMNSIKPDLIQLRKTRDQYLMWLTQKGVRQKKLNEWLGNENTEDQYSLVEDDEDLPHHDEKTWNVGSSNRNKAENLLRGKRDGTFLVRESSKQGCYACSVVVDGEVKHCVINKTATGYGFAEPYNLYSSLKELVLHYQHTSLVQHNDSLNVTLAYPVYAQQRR

`C[C@H](Nc1ncnc(N)c1C#N)c1nc2cc(F)ccc2n1CC1CC1` [4-amino-6-(((1S)-1-(1-(cyclopropylmethyl)-5-fluoro-1H-benzimidazol-2-yl)ethyl)amino)-5-pyrimidinecarbonitrile]: where the note is “read-out: PI3k δ Ki”, the Ki was 6 nM and 25.8 nM.
Still for that read-out and setting: then `C[C@H](Nc1ncnc(N)c1C#N)c1nc2cccnc2n1-c1cc(F)cc(F)c1` [4-amino-6-(((1S)-1-(3-(3,5-difluorophenyl)-3H-imidazo[4,5-b]pyridin-2-yl)ethyl)amino)-5-pyrimidinecarbonitrile], with 138 nM; and `C[C@H](Nc1ncnc(N)c1C#N)c1nc2cccc(S(C)(=O)=O)c2[nH]1` [4-amino-6-(((1S)-1-(7-(methylsulfonyl)-1H-benzimidazol-2-yl)ethyl)amino)-5-pyrimidinecarbonitrile], with 45.5 nM.
As for `C[C@@H](Nc1ncnc(N)c1C#N)c1nc2ccc(F)cc2n1-c1cncc(-c2ccccn2)c1` [4-amino-6-(((1R)-1-(1-(2,3′-bipyridin-5′-yl)-6-fluoro-1H-benzimidazol-2-yl)ethyl)amino)-5-pyrimidinecarbonitrile], the affinity corresponds to a Ki of 1190 nM.
For the compound `C[C@@H](Nc1ncnc(N)c1C#N)c1nc2ccc(F)cc2n1-c1cccc(F)n1` [4-amino-6-(((1R)-1-(6-fluoro-1-(6-fluoro-2-pyridinyl)-1H-benzimidazol-2-yl)ethyl)amino)-5-pyrimidinecarbonitrile], the Ki (read-out: PI3k δ Ki) worked out at 755 nM.
`CC(Nc1ncnc(N)c1C#N)c1nc2ncccc2n1-c1ccccn1` (stereo not shown) returned a Ki of 2900 nM.
With `C[C@H](Nc1ncnc(N)c1C#N)c1nc2cccc(S(C)(=O)=O)c2n1CC1CC1` [4-amino-6-(((1S)-1-(1-(cyclopropylmethyl)-7-(methylsulfonyl)-1H-benzimidazol-2-yl)ethyl)amino)-5-pyrimidinecarbonitrile], the Ki (read-out: PI3k δ Ki) worked out at 2.2 nM.
Same read-out and setting: then `C[C@H](Nc1ncnc(N)c1C#N)c1nc2cc(F)c(F)cc2n1-c1cncc(F)c1` [4-amino-6-(((1S)-1-(5,6-difluoro-1-(5-fluoro-3-pyridinyl)-1H-benzimidazol-2-yl)ethyl)amino)-5-pyrimidinecarbonitrile], with 57.5 nM.
Same read-out and setting: then `C[C@H](Nc1ncnc(N)c1C#N)c1nc2cnccn2c1-c1ccccn1` [4-amino-6-(((1S)-1-(3-(2-pyridinyl)imidazo[1,2-a]pyrazin-2-yl)ethyl)amino)-5-pyrimidinecarbonitrile], with 2160 nM; and `C[C@H](Nc1ncnc(N)c1C#N)c1nc2ccc(F)cc2n1-c1cccc(F)n1` [4-amino-6-(((1S)-1-(6-fluoro-1-(6-fluoro-2-pyridinyl)-1H-benzimidazol-2-yl)ethyl)amino)-5-pyrimidinecarbonitrile], with 8.89 nM.
The same measure, in the same setting: then `CNC(=O)c1cccc2nc([C@H](C)Nc3ncnc(N)c3C#N)c(-c3ccccc3)n12` [2-((1S)-1-((6-amino-5-cyano-4-pyrimidinyl)amino)ethyl)-N-methyl-3-phenylimidazo[1,2-a]pyridine-5-carboxamide], with 26.2 nM.
Take `CC(Nc1ncnc(N)c1C#N)c1sc2ccccc2c1-c1ccccc1` (stereo not shown) [4-amino-6-((1-(3-phenyl-1-benzothiophen-2-yl)ethyl)amino)-5-pyrimidinecarbonitrile]: the Ki (read-out: PI3k δ Ki) was 2.66 nM.
As for `C[C@H](Nc1ncnc(N)c1C#N)c1nc2c(F)cccc2n1-c1cncc(F)c1` [4-amino-6-(((1S)-1-(4-fluoro-1-(5-fluoro-3-pyridinyl)-1H-benzimidazol-2-yl)ethyl)amino)-5-pyrimidinecarbonitrile], the Ki (read-out: PI3k δ Ki) stood at 47 nM.
In turn, `CC(Nc1ncnc(N)c1C#N)c1nc2cccc(S(C)(=O)=O)c2n1C1CC1` (stereo not shown) showed a Ki of 3.76 nM.
Regarding `C[C@H](Nc1ncnc(N)c1C#N)c1nc2ccc(F)cc2n1-c1cncc(-c2ccccn2)c1` [4-amino-6-(((1S)-1-(1-(2,3′-bipyridin-5′-yl)-6-fluoro-1H-benzimidazol-2-yl)ethyl)amino)-5-pyrimidinecarbonitrile], the affinity, expressed as Ki, was 248 nM.
On to `C[C@H](Nc1ncnc(N)c1C#N)c1nc2c(F)cc(F)cc2n1-c1cccnc1` [4-amino-6-(((1S)-1-(4,6-difluoro-1-(3-pyridinyl)-1H-benzimidazol-2-yl)ethyl)amino)-5-pyrimidinecarbonitrile], for which, where the note is “read-out: PI3k δ Ki”, the Ki is 6.74 nM.
Still for that read-out and setting: then `C[C@@H](Nc1ncnc(N)c1C#N)c1nc2cccc(C#N)c2n1-c1cncc(F)c1` [2-((1R)-1-((6-amino-5-cyano-4-pyrimidinyl)amino)ethyl)-1-(5-fluoro-3-pyridinyl)-1H-benzimidazole-7-carbonitrile], with 325 nM; and `C[C@H](Nc1ncnc2[nH]cnc12)c1nc2ccc(F)cc2n1-c1cccc(F)c1` [N-((1S)-1-(6-fluoro-1-(3-fluorophenyl)-1H-benzimidazol-2-yl)ethyl)-9H-purin-6-amine], with 2.7 nM; and `CNC(=O)c1cccc(-n2c([C@@H](C)Nc3ncnc(N)c3C#N)nc3ccc(F)cc32)c1` [3-(2-((1R)-1-((6-amino-5-cyano-4-pyrimidinyl)amino)ethyl)-6-fluoro-1H-benzimidazol-1-yl)-N-methylbenzamide], with 4670 nM.
For `C[C@@H](Nc1ncnc(N)c1C#N)c1nc2ccc(F)cc2n1-c1cccc(-c2ccccn2)c1` [4-amino-6-(((1R)-1-(6-fluoro-1-(3-(2-pyridinyl)phenyl)-1H-benzimidazol-2-yl)ethyl)amino)-5-pyrimidinecarbonitrile], for the setting “read-out: PI3k δ Ki”, the Ki came to 132 nM.
The same measure, in the same setting: the value for `C[C@H](Nc1ncnc(N)c1C#N)c1nc2cccc(S(C)(=O)=O)c2n1Cc1ccc(F)cc1` [4-amino-6-(((1S)-1-(1-(4-fluorobenzyl)-7-(methylsulfonyl)-1H-benzimidazol-2-yl)ethyl)amino)-5-pyrimidinecarbonitrile] was 26.8 nM; that for `CSc1cccc(-n2c([C@H](C)Nc3ncnc(N)c3C#N)nc3cc(F)ccc32)c1` [4-amino-6-(((1S)-1-(5-fluoro-1-(3-(methylsulfanyl)phenyl)-1H-benzimidazol-2-yl)ethyl)amino)-5-pyrimidinecarbonitrile] was 44.1 nM; that for `CNC(=O)c1cccc2nc([C@H](C)Nc3ncnc4[nH]cnc34)n(C3CC3)c12` [1-cyclopropyl-N-methyl-2-((1S)-1-(9H-purin-6-ylamino)ethyl)-1H-benzimidazole-7-carboxamide] was 14.6 nM.
Same read-out and setting: the value for `C[C@H](Nc1ncnc(N)c1C#N)c1nc2cccc(F)c2n1C1CC1` [4-amino-6-(((1S)-1-(1-cyclopropyl-7-fluoro-1H-benzimidazol-2-yl)ethyl)amino)-5-pyrimidinecarbonitrile] was 12.2 nM; that for `C[C@H](Nc1ncnc(N)c1C#N)c1nc2ccc(F)cc2n1-c1cccc(C#N)c1` [4-amino-6-(((1S)-1-(1-(3-cyanophenyl)-6-fluoro-1H-benzimidazol-2-yl)ethyl)amino)-5-pyrimidinecarbonitrile] was 18.8 nM.
On the same count and under the same terms, then `C[C@H](Nc1ncnc2[nH]cnc12)c1nc2cccc(F)c2[nH]1` [N-((1S)-1-(7-fluoro-1H-benzimidazol-2-yl)ethyl)-9H-purin-6-amine], with 650 nM; and `COC(=O)c1cccc2nc([C@H](C)Nc3ncnc(N)c3C#N)c(-c3cncc(F)c3)n12` [methyl 2-((1S)-1-((6-amino-5-cyano-4-pyrimidinyl)amino)ethyl)-3-(5-fluoro-3-pyridinyl)imidazo[1,2-a]pyridine-5-carboxylate], with 314 nM.
As for `C[C@@H](Nc1ncnc(N)c1C#N)c1nc2cccc(S(C)(=O)=O)c2n1C1CC1` [4-amino-6-(((1R)-1-(1-cyclopropyl-7-(methylsulfonyl)-1H-benzimidazol-2-yl)ethyl)amino)-5-pyrimidinecarbonitrile], the Ki (read-out: PI3k δ Ki) came to 1000 nM.
Same read-out and setting: the value for `CNC(=O)c1cccc2nc([C@H](C)Nc3ncnc(N)c3C#N)n(C3CC3)c12` [2-((1S)-1-((6-amino-5-cyano-4-pyrimidinyl)amino)ethyl)-1-cyclopropyl-N-methyl-1H-benzimidazole-7-carboxamide] was 7.1 nM.
Still for that read-out and setting: the value for `C[C@H](Nc1ncnc(N)c1C#N)c1nc2cc(F)ccc2n1-c1ccccc1` [4-amino-6-(((1S)-1-(5-fluoro-1-phenyl-1H-benzimidazol-2-yl)ethyl)amino)-5-pyrimidinecarbonitrile] was 1.7 nM; that for `CNC(=O)c1cccc2nc([C@H](C)Nc3ncnc(N)c3S(C)(=O)=O)n(C3CC3)c12` [2-((1S)-1-((6-amino-5-(methylsulfonyl)-4-pyrimidinyl)amino)ethyl)-1-cyclopropyl-N-methyl-1H-benzimidazole-7-carboxamide] was 30 nM.
The same measure, in the same setting: the value for `C[C@H](Nc1ncnc(N)c1C#N)c1nc2ccc(F)cc2n1-c1cncc(NS(C)(=O)=O)c1` [N-(5-(2-((1S)-1-((6-amino-5-cyano-4-pyrimidinyl)amino)ethyl)-6-fluoro-1H-benzimidazol-1-yl)-3-pyridinyl)methanesulfonamide] was 11.9 nM; that for `C[C@H](Nc1ncnc(N)c1C#N)c1nc2ccc(F)cc2n1-c1cccc(-c2ccccn2)c1` [4-amino-6-(((1S)-1-(6-fluoro-1-(3-(2-pyridinyl)phenyl)-1H-benzimidazol-2-yl)ethyl)amino)-5-pyrimidinecarbonitrile] was 8.9 nM and 3.8 nM.
On to `C[C@@H](Nc1ncnc(N)c1C#N)c1nc2c(F)cccc2n1-c1cc(F)cc(F)c1` [4-amino-6-(((1R)-1-(1-(3,5-difluorophenyl)-4-fluoro-1H-benzimidazol-2-yl)ethyl)amino)-5-pyrimidinecarbonitrile], for which, where the note is “read-out: PI3k δ Ki”, the Ki was found to be 4180 nM.
